These results are taken from US12384770B2, “Heterocyclic compound” (Takeda Pharmaceutical Company Limited, priority 2019, dated 2025).

For the first test, the target named is T1, HDAC6 enzyme (Homo sapiens, UniProt Q9UBN7).
T1 construct: HDAC6 enzyme prepared by transducing full length HDAC6 gene into Sf-9 insect cells; GST; purchased SignalChem; host or cells: Sf-9 insect cells
T1 sequence (Q9UBN7 1-1215): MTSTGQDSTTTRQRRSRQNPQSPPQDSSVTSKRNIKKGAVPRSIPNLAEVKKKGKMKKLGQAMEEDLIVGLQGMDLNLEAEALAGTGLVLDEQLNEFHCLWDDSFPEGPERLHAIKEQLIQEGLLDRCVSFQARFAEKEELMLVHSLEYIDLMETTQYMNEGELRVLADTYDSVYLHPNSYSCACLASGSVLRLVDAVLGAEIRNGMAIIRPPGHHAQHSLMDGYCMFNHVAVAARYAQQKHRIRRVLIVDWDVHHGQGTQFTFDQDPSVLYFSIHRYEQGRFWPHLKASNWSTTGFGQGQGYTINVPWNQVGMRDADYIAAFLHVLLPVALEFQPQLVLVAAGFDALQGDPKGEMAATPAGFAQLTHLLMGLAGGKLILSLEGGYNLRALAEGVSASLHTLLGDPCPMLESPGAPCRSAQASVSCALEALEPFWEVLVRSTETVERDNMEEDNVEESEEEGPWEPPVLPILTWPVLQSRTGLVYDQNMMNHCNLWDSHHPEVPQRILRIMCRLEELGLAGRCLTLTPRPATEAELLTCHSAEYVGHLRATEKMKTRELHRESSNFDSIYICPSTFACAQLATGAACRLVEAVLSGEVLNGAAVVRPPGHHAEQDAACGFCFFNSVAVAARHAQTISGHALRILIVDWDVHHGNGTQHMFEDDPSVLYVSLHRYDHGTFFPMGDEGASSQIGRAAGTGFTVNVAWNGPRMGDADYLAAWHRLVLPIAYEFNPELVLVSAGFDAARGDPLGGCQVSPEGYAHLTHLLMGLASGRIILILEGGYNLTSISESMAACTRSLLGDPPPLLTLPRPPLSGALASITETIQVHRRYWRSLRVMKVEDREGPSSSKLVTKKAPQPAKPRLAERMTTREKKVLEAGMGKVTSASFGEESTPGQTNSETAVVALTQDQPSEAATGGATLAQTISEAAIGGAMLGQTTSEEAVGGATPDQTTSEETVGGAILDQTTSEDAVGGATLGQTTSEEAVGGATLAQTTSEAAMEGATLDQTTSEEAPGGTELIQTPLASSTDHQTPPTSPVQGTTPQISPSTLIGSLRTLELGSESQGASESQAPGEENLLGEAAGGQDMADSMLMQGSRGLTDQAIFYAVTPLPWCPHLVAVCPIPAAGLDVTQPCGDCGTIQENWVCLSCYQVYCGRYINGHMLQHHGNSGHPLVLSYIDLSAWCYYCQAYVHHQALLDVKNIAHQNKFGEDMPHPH
In words: HDAC6 enzyme inhibitory assay (HDAC-Glo I/II Assay kit). The settings on record: wells without enzyme = 100% inhibition. It counts as biochemical. The method in brief: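 Full-length GST-purified HDAC6 from Sf-9 cells preincubated with compound 60 min at room temperature in Tris-HCl pH 7.5 buffer with MgCl2, KCl, NaCl, glutathione, Tween-20. Substrate-developer reaction 20 min, luminescence read; no-enzyme wells set as 100% inhibition.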
On to `O=C1c2cc(-c3nnc(C(F)F)o3)ccc2CN1[C@H](c1ccccn1)[C@@H](O)c1cccc(C(F)(F)F)n1` (single isomer, unassigned) [Example 120, 6-[5-(difluoromethyl)-1,3,4-oxadiazol-2-yl]-2-{(1R*,2R*)-2-hydroxy-1-(pyridin-2-yl)-2-[6-(trifluoromethyl)pyridin-2-yl]ethyl}-2,3-dihydro-1H-isoindol-1-one], for which the “HDAC6 inhibitory rate (%) (10 μM)” value amounted to 101%. On the same count and under the same terms, then `O=C1c2cc(-c3nnc(C(F)F)o3)ccc2CN1[C@H](c1cnccn1)[C@@H](O)c1ccccc1` (single isomer, unassigned) [Example 128, 6-[5-(difluoromethyl)-1,3,4-oxadiazol-2-yl]-2-[(1R*,2S*)-2-hydroxy-2-phenyl-1-(pyrazin-2-yl)ethyl]-2,3-dihydro-1H-isoindol-1-one], with 99%. In the case of `O=C1c2cc(-c3nnc(C(F)F)o3)ccc2CN1[C@H](c1ccc(F)cc1)[C@@H](O)c1ccc(F)nc1` (single isomer, unassigned) [Example 132, 6-[5-(difluoromethyl)-1,3,4-oxadiazol-2-yl]-2-[(1R*,2S*)-1-(4-fluorophenyl)-2-(6-fluoropyridin-3-yl)-2-hydroxyethyl]-2,3-dihydro-1H-isoindol-1-one], the “HDAC6 inhibitory rate (%) (10 μM)” value is on record as 99%.

Staying with this test, now noted: wells without enzyme = 100% inhibition, 10 µM.
In the case of `O=C1c2cc(-c3nnc(C(F)F)o3)ccc2CN1[C@H](c1ccccn1)[C@@H](O)c1ccc(Cl)cn1` (single isomer, unassigned) [Example 113, 2-[(1R*,2R)-2-(5-chloropyridin-2-yl)-2-hydroxy-1-(pyridin-2-yl)ethyl]-6-[5-(difluoromethyl)-1,3,4-oxadiazol-2-yl]-2,3-dihydro-1H-isoindol-1-one], the “HDAC6 inhibitory rate (%) (10 μM)” value came out at 100%. Consider `O=C1c2cc(-c3nnc(C(F)F)o3)ccc2CN1[C@H](c1ccccn1)[C@@H](O)c1cccc(Cl)n1` (single isomer, unassigned) [Example 115, 2-[(1R*,2R*)-2-(6-chloropyridin-2-yl)-2-hydroxy-1-(pyridin-2-yl)ethyl]-6-[5-(difluoromethyl)-1,3,4-oxadiazol-2-yl]-2,3-dihydro-1H-isoindol-1-one], for which the “HDAC6 inhibitory rate (%) (10 μM)” value is reported as 100%. Still for that read-out and setting: the result for `O=C1c2cc(-c3nnc(C(F)F)o3)ccc2CN1[C@H](c1cccc(F)n1)[C@@H](O)c1cccc(F)n1` (single isomer, unassigned) [Example 118, 2-[(1R*,2R*)-1,2-bis(6-fluoropyridin-2-yl)-2-hydroxyethyl]-6-[5-(difluoromethyl)-1,3,4-oxadiazol-2-yl]-2,3-dihydro-1H-isoindol-1-one] reads 102%.

Regarding `O=C1c2cc(-c3nnc(C(F)F)o3)ccc2CN1[C@H](c1ccccn1)[C@@H](O)c1cc(Cl)ccn1` (single isomer, unassigned) [Example 124, 2-[(1R*,2R*)-2-(4-chloropyridin-2-yl)-2-hydroxy-1-(pyridin-2-yl)ethyl]-6-[5-(difluoromethyl)-1,3,4-oxadiazol-2-yl]-2,3-dihydro-1H-isoindol-1-one], the “HDAC6 inhibitory rate (%) (10 μM)” value is recorded as 100%.

On to `O=C1c2cc(-c3nnc(C(F)F)o3)ccc2CN1[C@H](C1CC1)[C@@H](O)c1cccc(Cl)n1` (single isomer, unassigned) [Example 130, 2-[(1R*,2R*)-2-(6-chloropyridin-2-yl)-1-cyclopropyl-2-hydroxyethyl]-6-[5-(difluoromethyl)-1,3,4-oxadiazol-2-yl]-2,3-dihydro-1H-isoindol-1-one], for which the “HDAC6 inhibitory rate (%) (10 μM)” value was determined as 98%.

The test is the same for the next values; noted with them: wells without enzyme = 100% inhibition, read-out: HDAC6 inhibitory rate (%) (10 μM).
Regarding `O=C1c2cc(-c3nnc(C(F)F)o3)ccc2CN1[C@H](c1ccccn1)[C@@H](O)c1ccc(Cl)cn1` (single isomer, unassigned) [Example 112, 2-[(1R*,2R*)-2-(5-chloropyridin-2-yl)-2-hydroxy-1-(pyridin-2-yl)ethyl]-6-[5-(difluoromethyl)-1,3,4-oxadiazol-2-yl]-2,3-dihydro-1H-isoindol-1-one], the inhibition at 10 µM was found to be 99%. The same measure, in the same setting: then `O=C1c2cc(-c3nnc(C(F)F)o3)ccc2CN1[C@H](c1ccccn1)[C@@H](O)c1cccc(Cl)n1` (single isomer, unassigned) [Example 114, 2-[(1R*,2R*)-2-(6-chloropyridin-2-yl)-2-hydroxy-1-(pyridin-2-yl)ethyl]-6-[5-(difluoromethyl)-1,3,4-oxadiazol-2-yl]-2,3-dihydro-1H-isoindol-1-one], with 99%. Regarding `O=C1c2cc(-c3nnc(C(F)F)o3)ccc2CN1[C@H](c1cccc(F)n1)[C@@H](O)c1cccc(F)n1` (single isomer, unassigned) [Example 117, 2-[(1R*,2R*)-1,2-bis(6-fluoropyridin-2-yl)-2-hydroxyethyl]-6-[5-(difluoromethyl)-1,3,4-oxadiazol-2-yl]-2,3-dihydro-1H-isoindol-1-one], the inhibition at 10 µM was determined as 101%.

Turning to `O=C1c2cc(-c3nnc(C(F)F)o3)ccc2CN1[C@H](c1ccccn1)[C@@H](O)c1cccc(C(F)(F)F)n1` (single isomer, unassigned) [Example 119, 6-[5-(difluoromethyl)-1,3,4-oxadiazol-2-yl]-2-{(1R*,2R*)-2-hydroxy-1-(pyridin-2-yl)-2-[6-(trifluoromethyl)pyridin-2-yl]ethyl}-2,3-dihydro-1H-isoindol-1-one], the inhibition at 10 µM came out at 101%. As for `O=C1c2cc(-c3nnc(C(F)F)o3)ccc2CN1[C@H](c1cccnn1)[C@@H](O)c1cccc(Cl)c1` (single isomer, unassigned) [Example 122, 2-[(1R*,2S*)-2-(3-chlorophenyl)-2-hydroxy-1-(pyridazin-3-yl)ethyl]-6-[5-(difluoromethyl)-1,3,4-oxadiazol-2-yl]-2,3-dihydro-1H-isoindol-1-one], the inhibition at 10 µM was determined as 100%. `O=C1c2cc(-c3nnc(C(F)F)o3)ccc2CN1[C@H](c1ccccn1)[C@@H](O)c1cc(Cl)ccn1` (single isomer, unassigned) [Example 123, 2-[(1R*,2R*)-2-(4-chloropyridin-2-yl)-2-hydroxy-1-(pyridin-2-yl)ethyl]-6-[5-(difluoromethyl)-1,3,4-oxadiazol-2-yl]-2,3-dihydro-1H-isoindol-1-one]: the inhibition at 10 µM turned out to be 101%. Still for that read-out and setting: then `O=C1c2cc(-c3nnc(C(F)F)o3)ccc2CN1[C@H](c1cccc(F)n1)[C@@H](O)c1ccc(F)cn1` (single isomer, unassigned) [Example 126, 6-[5-(difluoromethyl)-1,3,4-oxadiazol-2-yl]-2-[(1R*,2R*)-2-(5-fluoropyridin-2-yl)-1-(6-fluoropyridin-2-yl)-2-hydroxyethyl]-2,3-dihydro-1H-isoindol-1-one], with 101%; and `O=C1c2cc(-c3nnc(C(F)F)o3)ccc2CN1[C@H](c1cnccn1)[C@@H](O)c1ccccc1` (single isomer, unassigned) [Example 127, 6-[5-(difluoromethyl)-1,3,4-oxadiazol-2-yl]-2-[(1R*,2S*)-2-hydroxy-2-phenyl-1-(pyrazin-2-yl)ethyl]-2,3-dihydro-1H-isoindol-1-one], with 99%; and `O=C1c2cc(-c3nnc(C(F)F)o3)ccc2CN1[C@H](C1CC1)[C@@H](O)c1cccc(Cl)n1` (single isomer, unassigned) [Example 129, 2-[(1R*,2R*)-2-(6-chloropyridin-2-yl)-1-cyclopropyl-2-hydroxyethyl]-6-[5-(difluoromethyl)-1,3,4-oxadiazol-2-yl]-2,3-dihydro-1H-isoindol-1-one], with 100%.

In the case of `O=C1c2cc(-c3nnc(C(F)F)o3)ccc2CN1[C@H](c1ccc(F)cc1)[C@@H](O)c1ccc(F)nc1` (single isomer, unassigned) [Example 131, 6-[5-(difluoromethyl)-1,3,4-oxadiazol-2-yl]-2-[(1R*,2S*)-1-(4-fluorophenyl)-2-(6-fluoropyridin-3-yl)-2-hydroxyethyl]-2,3-dihydro-1H-isoindol-1-one], the inhibition at 10 µM turned out to be 99%.
